For test [1], the system named is CAL-51. The conditions noted are these: 72 h. In short, it runs like this:
(§1)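 For viability and cell death testing, 384-well plates carried compound at 5 concentrations in 10-fold steps over a compound-specific 10,000-fold range, and breast cancer cell lines were seeded in 20 µl suspension. After 72 h incubation, cell death was read by CellTox Green fluorescence (485/520 nm) before viability was read by CellTiter-Glo luminescence. EC50 was fitted from the dose-response curves and censored at the top concentration. Normalisation on each plate was to 0.1 % DMSO and a positive kill control.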

For test [2], the system named is HCC1937. The note with it: 72 h. In short, it runs like this: (§2)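 EC50 is the value from a fitted percent-inhibition dose-response curve, censored at the highest concentration, and rows with zero drug sensitivity score were not kept. The underlying assay seeded breast cancer cell lines in 20 µl onto 384-well plates pre-loaded with compound in 5 µl medium for 72 h. Viability was then read by CellTiter-Blue fluorescence at 560/590 nm after 2 h at 37 °C, with each plate normalised to vehicle and a positive kill control.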

Test [3] relates to MDA-MB-231. The conditions noted are these: 72 h. In a few lines: as §2
The test system of test [4] is CAL-120. The conditions noted are these: 72 h. In short, it runs like this:
as §2

The test system of test [5] is BT-474. The note with it: 72 h. In short, it runs like this:
as §1

For test [6], the system named is MDA-MB-468. The note with it: 72 h. In short, it runs like this: as §1
Test [7] deals with DU-4475. Put plainly: normalised viability (% of control), CellTiter-Blue; higher = more viable cells (about 100 = DMSO control). The note with it: incubation time: 72 h. As for the experimental part: (§3)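 DSRT, CellTiter-Blue viability, 72 h incubation. Signal is normalised to DMSO and benzethonium chloride controls. Value is the normalised response at dose 9.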
In test [8] the test system is CAL-148. The description is as above. The conditions noted are these: incubation time: 72 h. As to the method: as §3
Test [9] deals with HDQ-P1. The test is described as above. The note with it: incubation time: 72 h. As to the method: as §3
For test [10], the system named is CAL-51. The test is described as above. The note with it: incubation time: 72 h. As for the experimental part:
as §3

The subject of test [11] is MDA-MB-453. Described as above. The note with it: incubation time: 72 h. As to the method: as §3
The subject of test [12] is CAL-85-1. The description is as above. The note with it: incubation time: 72 h. As to the method: as §3
The subject of test [13] is DU-4475. Kind of test: normalised response (% of control), CellTiter-Glo; higher = more viable cells (100 = DMSO, 0 = benzethonium chloride kill control). The note with it: incubation time: 72 h. In a few lines:
(§4)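 Every value is a normalised signal taken at one concentration of a dilution series. Compound was placed in 384-well plates at 5 concentrations in 10-fold steps over a compound-specific 10,000-fold range, and 20 µl of breast cancer cell suspension was seeded onto it. After 72 h, CellTox Green fluorescence (485/520 nm) was measured first and CellTiter-Glo luminescence second, following 10 min at room temperature. Each plate was scaled to 0.1 % DMSO (100) and a positive kill control (0).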

For test [14], the system named is HCC1937. The test is described as above. The conditions noted are these: incubation time: 72 h. In short, it runs like this: as §4
The test system of test [15] is HCC1599. The description is as above. The conditions noted are these: incubation time: 72 h. In short, it runs like this: as §4
In test [16] the test system is MFM-223. The test is described as above. The note with it: incubation time: 72 h. In a few lines:
as §4

In test [17] the test system is Hs578T. The test is described as above. The conditions noted are these: incubation time: 72 h. In short, it runs like this: as §4
For test [18], the system named is MDA-MB-231. The test is described as above. The conditions noted are these: incubation time: 72 h. In a few lines: as §4
The subject of test [19] is HDQ-P1. The test is described as above. The note with it: incubation time: 72 h. In short, it runs like this:
as §4

The test system of test [20] is SK-BR-3. The test is described as above. The note with it: incubation time: 72 h. In short, it runs like this:
as §4

The subject of test [21] is BT-474. The description is as above. The conditions noted are these: incubation time: 72 h. In a few lines: as §4
Test [22] concerns CAL-51. Described as above. The note with it: incubation time: 72 h. In short, it runs like this: as §4
The test system of test [23] is MDA-MB-468. The test is described as above. The conditions noted are these: incubation time: 72 h. In a few lines: as §4
For test [24], the system named is MDA-MB-453. Described as above. The note with it: incubation time: 72 h. In short, it runs like this: as §4
Test [25] relates to MCF-10A. Described as above. The note with it: incubation time: 72 h. In short, it runs like this:
as §4

Test [26] relates to CAL-120. The test is described as above. The note with it: incubation time: 72 h. In short, it runs like this: as §4
Test [27] concerns CAL-85-1. The description is as above. The conditions noted are these: incubation time: 72 h. In a few lines: as §4
For test [28], the system named is BT-549. The test is described as above. The note with it: incubation time: 72 h. In short, it runs like this:
as §4

As to `Cc1ccc(C(=O)N(CCCN)[C@@H](c2oc3cc(Cl)ccc3c(=O)c2Cc2ccccc2)C(C)C)cc1`, the “EC50, CellTiter-Glo” value in test [1] was 0.24 nM. Besides, the “EC50, CellTiter-Blue viability” value was 0.62 nM in [2], 0.34 nM in [3] and 0.57 nM in test [4].

For the compound `NC(=O)Nc1cc(-c2cccc(F)c2)sc1C(=O)N[C@H]1CCCNC1` [AZD7762], the results for the “EC50, CellTiter-Glo” value in test [5], in [1] and in test [6] were 233 nM, 707 nM and 596 nM, respectively.

In the case of `NC(=O)Nc1cc(-c2cccc(F)c2)sc1C(=O)N[C@H]1CCCNC1` [AZD 7762], the entries for the “EC50, CellTiter-Blue viability” value in [2], in [3] and in [4] were 613 nM, 347 nM and 560 nM, respectively.

As to `CO[C@H]1/C=C\C=C(/C)C(=O)NC2=CC(=O)C(NCCN(C)C)=C(C[C@@H](C)C[C@H](OC)[C@H](O)[C@@H](C)/C=C(\C)[C@@H]1OC(N)=O)C2=O` [Alvespimycin], the entries for the “EC50, CellTiter-Glo” value in test [5], in [1] and in test [6] were 48.8 nM, 48 nM and 32 nM, respectively. Further, the results for the “EC50, CellTiter-Blue viability” value in test [2], in test [3] and in test [4] were 7.56 nM, 38.9 nM and 27.4 nM, respectively.

Regarding `CCN(CCCOc1ccc2c(Nc3cc(CC(=O)Nc4cccc(F)c4)[nH]n3)ncnc2c1)CCOP(=O)(O)O` [Barasertib], the “EC50, CellTiter-Blue viability” value amounted to 29.6 nM in test [2], 156 nM in [3] and 30 nM in test [4].

As for `C[C@@H](Oc1cc(-c2cnn(C3CCNCC3)c2)cnc1N)c1c(Cl)ccc(F)c1Cl` [Crizotinib], the “EC50, CellTiter-Glo” value in test [6] is more than 1000 nM. In addition, the figures for the “EC50, CellTiter-Blue viability” value in test [2], in test [3] and in test [4] were 2280 nM, 1360 nM and 2640 nM, respectively.

For `COc1cc2ncnc(Nc3ccc(F)c(Cl)c3)c2cc1NC(=O)/C=C/CN1CCCCC1` [Dacomitinib], the “EC50, CellTiter-Glo” value in [5] was more than 1000 nM; in test [6], 179 nM.

`Cc1ccc(-n2nc(C(C)(C)C)cc2NC(=O)Nc2ccc(OCCN3CCOCC3)c3ccccc23)cc1` [Doramapimod]: in [6], the “EC50, CellTiter-Glo” value came out at 937 nM.

Consider `C#Cc1cccc(Nc2ncnc3cc(OCCOC)c(OCCOC)cc23)c1` [Erlotinib], for which the “EC50, CellTiter-Glo” value in test [1] amounted to 1130 nM. The “EC50, CellTiter-Blue viability” value stood at 937 nM in test [2] and 2450 nM in test [4].

Turning to `COc1cc([C@@H]2c3cc4c(cc3[C@@H](O[C@@H]3O[C@@H]5CO[C@@H](C)O[C@H]5[C@H](O)[C@H]3O)[C@H]3COC(=O)[C@H]23)OCO4)cc(OC)c1O` [Etoposide], the figures for the “EC50, CellTiter-Glo” value in test [5], in test [1] and in test [6] were 2810 nM, 1090 nM and 1730 nM, respectively. Besides, the “EC50, CellTiter-Blue viability” value in test [2] was 3700 nM; in [3] it was 1020 nM; in [4], 2260 nM.

As to `O=P1(NCCCl)OCCCN1CCCl` (stereo not drawn) [Ifosfamide], the “EC50, CellTiter-Glo” value in test [5] was more than 10000 nM.

As for `N#CCNC(=O)c1ccc(-c2ccnc(Nc3ccc(N4CCOCC4)cc3)n2)cc1` [Momelotinib], the “EC50, CellTiter-Glo” value in [5] came out at 5780 nM; in [6] it was 3480 nM.

As for `CC1(C)NC(=O)N(c2ccc([N+](=O)[O-])c(C(F)(F)F)c2)C1=O` [Nilutamide], in test [1], the “EC50, CellTiter-Glo” value worked out at 724 nM.

On to `Cc1ccc(C(=O)Nc2ccc(CN3CCN(C)CC3)c(C(F)(F)F)c2)cc1C#Cc1cnc2cccnn12` [Ponatinib], for which the “EC50, CellTiter-Glo” value was 244 nM in test [5], 844 nM in test [1] and more than 1000 nM in [6]. Besides, in test [4], the “EC50, CellTiter-Blue viability” value is 190 nM.

Take `Cn1c(Nc2ccc(C(F)(F)F)cc2)nc2cc(Oc3ccnc(-c4ncc(C(F)(F)F)[nH]4)c3)ccc21` [RAF265]: the entries for the “EC50, CellTiter-Glo” value in test [5] and in test [6] were 692 nM and 142 nM, respectively. Also, the “EC50, CellTiter-Blue viability” value in test [2] is 99.1 nM; in test [3], 141 nM; in test [4] it was 77.8 nM.

In the case of `CS(=O)(=O)c1ccc(C2=C(c3ccccc3)C(=O)OC2)cc1` [Rofecoxib], in test [1], the “EC50, CellTiter-Glo” value was more than 10000 nM.

Take `CNCc1ccc(-c2[nH]c3cc(F)cc4c3c2CCNC4=O)cc1` [Rucaparib]: the “EC50, CellTiter-Glo” value in [6] turned out to be 1710 nM. Also, the “EC50, CellTiter-Blue viability” value turned out to be 945 nM in test [2] and 683 nM in test [3].

Consider `N[C@@H](CSC(c1ccccc1)(c1ccccc1)c1ccccc1)C(=O)O` [S-trityl-L-cysteine], for which the “EC50, CellTiter-Blue viability” value in test [2] turned out to be 715 nM; in test [3], 955 nM; in test [4], 2000 nM.

Turning to `CN(N=O)C(=O)N[C@@H](C=O)[C@@H](O)[C@H](O)[C@H](O)CO` [Streptozocin], the “EC50, CellTiter-Blue viability” value in test [2] was 85.3 nM.

Turning to `O=C1CCC(N2C(=O)c3ccccc3C2=O)C(=O)N1` (stereo not drawn) [Thalidomide] (10000 nM), the normalised viability stood at 97.5% in test [7]; 106% in test [8]; 105% in test [9]; 90.6% in [10]; 102% in test [11]; 104% in [12]. Besides, the normalised response in [13] was found to be 93.3%; in [14], 98%; in test [15] it was 101%; in test [16], 100%; in test [17] it was 96.8%; in test [18] it was 94.2%. Also, the normalised response in [19] came out at 98.2%; in test [20], 106%; in test [21] it was 94.6%; in [22], 84.7%; in [23] it was 91.6%; in [24], 97.2%. In addition, the normalised response was determined as 98.8% in test [25], 100% in test [26], 93.5% in [27] and 96.7% in [28].

(Values after the supplement of paper PMC4862054.)
